Experiments:
Format in all cases: physicochemical
[1] = lambda max (Vis) of activated photochromic test squares in a Varian Cary 3 uv-visible spectrophotometer; conditions: activated form in test square
Method: (§1) Testing was done with the photochromic compounds described in Examples 1 through 20 and Comparative Examples 1 through 3 in the following manner. A quantity of photochromic compound calculated to yield a 1.5×10^-3 molal solution was added to a flask containing 50 grams of a monomer blend of 4 parts ethoxylated bisphenol A dimethacrylate (BPA 2EO DMA), 1 part poly(ethylene glycol) 600 dimethacrylate, and 0.033 weight percent 2,2'-azobis(2-methyl propionitrile) (AIBN). The photochromic compound was dissolved into the monomer blend by stirring and gentle heating, if necessary. After a clear solution was obtained, it was poured into a flat sheet mold having the interior dimensions of 2.2 mm×6 inches (15.24 cm)×6 inches (15.24 cm). The mold was sealed and placed in a horizontal air flow, programmable oven programmed to increase the temperature from 40° C. to 95° C. over a 5 hour interval, hold the temperature at 95° C. for 3 hours, lower it to 60° C. over a 2 hour interval and then hold it at 60° C. for 16 hours. After the mold was opened, the polymer sheet was cut using a diamond blade saw into 2 inch (5.1 centimeters) test squares.
The lambda max (Vis) is the wavelength in the visible spectrum at which the maximum absorption of the activated (colored) form of the photochromic compound in a test square occurs. The lambda max (Vis) wavelengths reported in Table 1 were determined by testing the photochromic test square polymerizates of Part A in a Varian Cary 3 uv-visible spectrophotometer. The bleach rate (T 1/2) is the time interval in seconds for the absorbance of the activated form of the photochromic compound in the test squares to read one half the highest absorbance at room temperature (72° F., 22.2° C.) after removal of the source of activating light.
For each lambda max visible, the corresponding optical density (Δ OD/Min and Δ OD at saturation) for the desired compounds of the Examples and Comparative Examples are tabulated in Table 1 for the two bands (A and B) of peak absorption for each compound. Table 1 also includes the bleach rate (T 1/2) for each of the compounds as measured at band B. The ratings of the Relative Δ OD at Saturation Test for the bands A and B of each of the Examples and Comparative Examples are calculated as follows: Δ OD at saturation (Band A)/Δ OD at saturation (Band B)×100.

[2] = photochromic response of test squares on an optical bench (sensitivity, saturation optical density, bleach rate); conditions: for ΔOD @ Saturation (Band A) / ΔOD @ Saturation (Band B): UV exposure 15 minutes; for ΔOD @ Saturation (Band A) / Sensitivity ΔOD/MIN (Band A) / ΔOD @ Saturation (Band B) / Sensitivity ΔOD/MIN (Band B): 72° F. (22.2° C.), polymer test square; for Sensitivity ΔOD/MIN (Band A) / Sensitivity ΔOD/MIN (Band B): first five (5) seconds of UV exposure, expressed per minute; for Bleach Rate T 1/2: measured at band B, room temperature (72° F., 22.2° C.) after removal of activating light
Method: as §1
(§2) The photochromic test squares of Part A were tested for photochromic response rates on an optical bench. Prior to testing on the optical bench, the photochromic test squares were exposed to 365 nanometer ultraviolet light for about 15 minutes to activate the photochromic compounds and then placed into a 76° C. oven for about 15 minutes to bleach the photochromic compounds. The test squares were then cooled to room temperature, exposed to fluorescent room lighting for at least 2 hours and then kept covered for at least 2 hours prior to testing on an optical bench maintained at 72° F. (22.2° C.). The bench was fitted with a 250 watt Xenon arc lamp, a remote controlled shutter, a copper sulfate bath acting as a heat sink for the arc lamp, a Schott WG-320 nm cut-off filter which removes short wavelength radiation; neutral density filter(s) and a sample holder in which the square to be tested was inserted. The power output of the optical bench, i.e., the dosage of light that the sample lens would be exposed to, was calibrated with a photochromic test square used as a reference standard. […] The UV-A detector was placed into the sample holder and the light output was measured. Adjustments to the power output were made by increasing or decreasing the lamp wattage or by adding or removing neutral density filters in the light path.
A monitoring, collimated beam of light from a tungsten lamp was passed through the square at a small angle (approximately 30°) normal to the square. After passing through the square, the light from the tungsten lamp was directed to a detector through Spectral Energy Corp. GM-200 monochromator set at the previously determined visible lambda max of the photochromic compound being measured. The output signals from the detector were processed by a radiometer.
(§3) Change in optical density (ΔOD) was determined by inserting a test square in the bleached state into the sample holder, adjusting the transmittance scale to 100%, opening the shutter from the Xenon lamp to provide ultraviolet radiation to change the test square from the bleached state to an activated (i.e., darkened) state, measuring the transmittance in the activated state, and calculating the change in optical density according to the formula: ΔOD=log(100/% Ta), where % Ta is the percent transmittance in the activated state and the logarithm is to the base 10.
The ΔOD/Min, which represents the sensitivity of the photochromic compound's response to UV light, was measured over the first five (5) seconds of UV exposure, then expressed on a per minute basis. The saturation optical density (ΔOD@ Saturation) was taken under identical conditions as the ΔOD/Min, except UV exposure was continued for 15 minutes. […]

[3] = Relative ΔOD at Saturation Test; conditions: ΔOD at saturation (Band A)/ΔOD at saturation (Band B)×100
Description: In accordance with the present invention, it has now been discovered that certain novel indeno[2,1-f]naphtho[1,2-b]pyrans having two absorption bands in the activated (colored) state, an acceptable fade rate, high activated intensity, a high coloration rate and a rating of 80 or higher in the Relative ΔOD at Saturation Test may be prepared. The Relative ΔOD at Saturation Test is described in Example 21. The ratings of the test are defined herein as the result obtained when the optical density of band "A" is divided by the optical density of band "B" and multiplied by 100. It is believed that compounds having a rating of 80 or higher are most valuable for formulating neutral grays, greens and browns for commercial photochromic ophthalmic eyeware.
as §1, §2
as §3, with “10. […]” for “10.”

| λ MAX Vis (Band A) [1] | λ MAX Vis (Band B) [1] | ΔOD @ Saturation (Band A) [2] | Sensitivity ΔOD/MIN (Band A) [2] | ΔOD @ Saturation (Band B) [2] | Sensitivity ΔOD/MIN (Band B) [2] | Bleach Rate T 1/2 [2] | Relative ΔOD at Saturation (rating) [3] | Compound |
| --- | --- | --- | --- | --- | --- | --- | --- | --- |
| 480 nm | 603 nm | 0.25 | 0.21 ΔOD/MIN | 0.24 | 0.18 ΔOD/MIN | 1.4 min | 104 | CCC1(O)c2ccccc2-c2c1c1c(c3cc(OC)c(OC)cc23)OC(c2ccc(OC)cc2)(c2ccc(N3CCOCC3)cc2)C=C1 (centres unmarked) [Example 17, 6,7-dimethoxy-3-(4-methoxyphenyl)-3-(4-morpholinophenyl)-13-hydroxy-13-ethyl-3H,13H-indeno[2,1-f]naphtho[1,2-b]pyran] |
| 483 nm | 604 nm | 0.27 | 0.21 ΔOD/MIN | 0.27 | 0.18 ΔOD/MIN | 1.43 min | 100 | CCC1(OC)c2ccccc2-c2c1c1c(c3cc(OC)c(OC)cc23)OC(c2ccc(OC)cc2)(c2ccc(N3CCOCC3)cc2)C=C1 (centres unmarked) [Example 18, 3-(4-methoxyphenyl)-3-(4-morpholinophenyl)-6,7-dimethoxy-13-ethyl-13-methoxy-3H,13H-indeno[2,1-f]naphtho[1,2-b]pyran] |
| 481 nm | 603 nm | 0.34 | 0.18 ΔOD/MIN | 0.35 | 0.22 ΔOD/MIN | 1.63 min | 97 | COc1ccc(C2(c3ccc(N4CCOCC4)cc3)C=Cc3c4c(c5cc(OC)c(OC)cc5c3O2)-c2ccccc2C4(C)O)cc1 (centres unmarked) [Example 19, 3-(4-methoxyphenyl)-3-(4-morpholinophenyl)-6,7-dimethoxy-13-hydroxy-13-methyl-3H,13H-indeno[2,1-f]naphtho[1,2-b]pyran] |
| 483 nm | 604 nm | 0.34 | 0.16 ΔOD/MIN | 0.37 | 0.17 ΔOD/MIN | 1.75 min | 92 | COc1ccc(C2(c3ccc(N4CCOCC4)cc3)C=Cc3c4c(c5cc(OC)c(OC)cc5c3O2)-c2ccccc2C4(C)OC)cc1 (centres unmarked) [Example 20, 3-(4-methoxyphenyl)-3-(4-morpholinophenyl)-6,7-dimethoxy-13-methoxy-13-methyl-3H,13H-indeno[2,1-f]naphtho[1,2-b]pyran] |
